Results on 26 molecules are retold here after patent publication US8232284B2, “Heteroaryloxy quinazoline derivative” (MSD K. K., priority 2007, dated 2012).

The term Emax denotes the size of the effect at its maximum, as opposed to the concentration needed. By EC50 is commonly meant the concentration that produces a half-maximal response.

Where a name gives a salt, the structure may show the parent alone.

For the first experiment, the target named is T1, recombinant human liver GK (Homo sapiens, UniProt P35557).
T1 construct: made in house; host or cells: E. coli
T1 sequence (P35557 1-466 isoform P35557-2): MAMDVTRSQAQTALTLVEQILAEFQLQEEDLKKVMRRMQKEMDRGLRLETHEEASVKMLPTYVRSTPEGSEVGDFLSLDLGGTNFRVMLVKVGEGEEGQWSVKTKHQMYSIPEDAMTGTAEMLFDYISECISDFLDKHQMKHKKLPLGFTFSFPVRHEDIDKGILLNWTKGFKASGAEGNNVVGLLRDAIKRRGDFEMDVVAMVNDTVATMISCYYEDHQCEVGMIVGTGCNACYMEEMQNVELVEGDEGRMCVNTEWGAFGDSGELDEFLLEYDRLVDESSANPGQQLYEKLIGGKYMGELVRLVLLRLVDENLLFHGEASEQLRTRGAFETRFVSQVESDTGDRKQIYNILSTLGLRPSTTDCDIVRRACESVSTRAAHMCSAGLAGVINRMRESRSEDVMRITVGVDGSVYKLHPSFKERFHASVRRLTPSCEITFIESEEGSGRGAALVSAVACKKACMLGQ
Kind of experiment: Glucokinase-activating effect (Thio-NADH coupled assay with G6PDH, 2.5 mM glucose). In kind it is biochemical. Conditions: OD level of DMSO control set as 100%; final glucose concentration 2.5 mM; 30° C. The source says: The excellent glucokinase-activating effect of the compounds of the formula (I) may be determined by a method described in literature (for example, Diabetes, Vol. 45, pp. 1671-1677, 1996), or in accordance with it.
The glucokinase activity may be determined not by directly measuring glucose-6-phosphate but by measuring the level of Thio-NADH, which is produced when a reporter enzyme, glucose-6-phosphate dehydrogenase produces phosphogluconolactone from glucose-6-phosphate, and based on the level, the degree of glucokinase activation by the compound tested may be determined
In this assay, used was a recombinant human liver GK, which was expressed by E. coli as a FLAG fusion protein therein and was purified by ANTIFLAG M2 AFFINITY GEL (Sigma).
Using a flat-bottomed 96-well plate, the assay was carried out at 30° C. 69 μl of an assay buffer (25 mM Hepes Buffer/pH=7.2, 2 mM MgCl2, 1 mM ATP, 0.5 mM TNAD, 1 mM dithiothreitol) was put into the plate, and 1 μl of a DMSO solution of the compound or DMSO alone as a control was added thereto. Next, 20 μl of an enzyme mixture (FLAG-GK, 20 U/ml G6PDH) cooled in ice was added to it, and 10 μl of a substrate, 25 mM glucose was added to it, and the reaction was initiated (final glucose concentration=2.5 mM).
After the start of the reaction, the increase in the absorbance at 405 nm was measured for 12 minutes at intervals of 30 seconds, and the increase for the first 5 minutes was used for assessing the compound tested. FLAG-GK was added so that the absorbance increase after 5 minutes in the presence of 1% DMSO could be from 0.04 to 0.06.
The OD level of the DMSO control was set as 100%; and the OD level of the test compound at different concentrations was determined. From the OD level at each concentration, Emax (%) and EC50 (μM) were computed and used as the index of the GK-activating potency of the compound.
The comparative test was conducted to compare the compound of example 18, 31 and 32 in this invention with the compound (A) in the patent document 1. The test method in vitro was similar to pharmacological experiment 1 (glucokinase-activating effect).
In the case of `Cc1cnc(Nc2ncnc3ccc(Oc4ncc(OCCCO)cc4Cl)cc23)cn1` [Example 61, 3-{[5-chloro-6-({4-[(5-methylpyrazin-2-yl)amino]quinazolin-6-yl}oxy)pyridin-3-yl]oxy}propan-1-ol], the Emax is 888%.

Take `CN(C)CCN(C)C(=O)c1ccnc(Oc2ccc3ncnc(Nc4ccn(C)n4)c3c2)c1Cl` [Example 67, 3-chloro-N-[2-(dimethylamino)ethyl]-N-methyl-2-({4-[(1-methyl-1H-pyrazol-3-yl)amino]quinazolin-6-yl}oxy)isonicotinamide]: the Emax was 598%.

Regarding `CN(C)CCOc1ncc(Oc2ccc3ncnc(Nc4ccn(C)n4)c3c2)cn1` [Example 7, 6-({2-[2-(dimethylamino)ethoxy]pyrimidin-5-yl}oxy)-N-(1-methyl-1H-pyrazol-3-yl)quinazoline-4-amine], the Emax was 695%.

Consider `CN(C)CCOc1ccc(Oc2ccc3ncnc(Nc4ccn(C)n4)c3c2)cn1` [Example 3, 6-({6-[2-(dimethylamino)ethoxy]pyridin-3-yl}oxy)-N-(1-methyl-1H-pyrazol-3-yl)quinazoline-4-amine], for which the Emax turned out to be 918%.

Turning to `CNCCOc1cnc(Oc2ccc3ncnc(Nc4ccn(C)n4)c3c2)c(C)c1` [Example 70, N-methyl-2-{[5-methyl-6-({4-[(1-methyl-1H-pyrazol-3-yl)amino]quinazolin-6-yl}oxy)pyridin-3-yl]oxy}ethanamine hydrochloride], the maximal effect (Emax) was 979%.

Still in this experiment, the particulars now being: final glucose concentration 2.5 mM; 30° C.; read-out: EC50.
Turning to `Cc1nsc(Nc2ncnc3ccc(Oc4ccc(OCCN(C)C)cn4)cc23)n1` [Example 47, 6-({5-[2-(dimethylamino)ethoxy]pyridin-2-yl}oxy)-N-(3-methyl-1,2,4-thiadiazol-5-yl)quinazoline-4-amine], the EC50 was found to be 290 nM.

In the case of `Cc1cc(OCCNC(C)C)cnc1Oc1ccc2ncnc(Nc3cnn(C)n3)c2c1` [Example 81, N-(2-{[5-methyl-6-({4-[(2-methyl-2H-1,2,3-triazol-4-yl)amino]quinazolin-6-yl}oxy)pyridin-3-yl]oxy}ethyl)propan-2-amine hydrochloride], the EC50 was 13 nM.

Consider `Cc1cnc(Nc2ncnc3ccc(Oc4ncc(OCCCO)cc4Cl)cc23)cn1` [Example 61, 3-{[5-chloro-6-({4-[(5-methylpyrazin-2-yl)amino]quinazolin-6-yl}oxy)pyridin-3-yl]oxy}propan-1-ol], for which the EC50 turned out to be 410 nM.

On to `CN(C)CCOc1cnc(Cl)c(Oc2ccc3ncnc(Nc4ccn(C)n4)c3c2)c1` [Example 2, 6-({2-chloro-5-[2-(dimethylamino)ethoxy]pyridin-3-yl}oxy)-N-(1-methyl-1H-pyrazol-3-yl)quinazoline-4-amine], for which the EC50 was found to be 420 nM.

Regarding `Cn1ccc(Nc2ncnc3ccc(Oc4ncc(OCCO)cc4F)cc23)n1` [Example 54, 2-{[5-fluoro-6-({-4-[(1-methyl-1H-pyrazol-3-yl)amino]quinazolin-6-yl}oxy)pyridin-3-yl]oxy}ethanol], the EC50 stood at 360 nM.

In the case of `Cc1cnc(Nc2ncnc3ccc(Oc4ncc(OCCO)cc4Cl)cc23)cn1` [Example 58, 2-{[5-chloro-6-({4-[(5-methylpyrazin-2-yl)amino]-1quinazolin-6-yl}oxy)pyridin-3-yl]oxy}ethanol], the EC50 came out at 200 nM.

With `Cc1cnc(Nc2ncnc3ccc(Oc4ncc(OCCN(C)C)cc4C)cc23)cn1` [Example 34, 6-({5-[2-(dimethylamino)ethoxy]-3-methylpyridin-2-yl}oxy)-N-(5-methylpyrazin-2-yl)quinazoline-4-amine hydrochloride], the EC50 came out at 70 nM.

On to `CN(C)CCOc1cnc(Oc2ccc3ncnc(Nc4ccn(C)n4)c3c2)nc1` [Example 8, 6-({5-[2-(dimethylamino)ethoxy]pyrimidin-2-yl}oxy)-N-(1-methyl-1H-pyrazol-3-yl)quinazoline-4-amine], for which the EC50 came to 1320 nM.

`CCN1CC(Oc2cnc(Oc3ccc4ncnc(Nc5ccn(C)n5)c4c3)c(F)c2)C1` [Example 25, 6-({5-[(1-ethylazetidin-3-yl)oxy]-3-fluoropyridin-2-yl}oxy)-N-(1-methyl-1H-pyrazol-3-yl)quinazoline-4-amine hydrochloride]: the half-maximal effective concentration (EC50) is 230 nM.

For `CN(C)CCCOc1ccc(Oc2ccc3ncnc(Nc4ccn(C)n4)c3c2)nc1` [Example 4, 6-({5-[3-(dimethylamino)propoxy]pyridin-2-yl}oxy)-N-(1-methyl-1H-pyrazol-3-yl)quinazoline-4-amine], the half-maximal effective concentration (EC50) worked out at 380 nM.

With `CN(C)CCN(C)C(=O)c1ccnc(Oc2ccc3ncnc(Nc4ccn(C)n4)c3c2)c1Cl` [Example 67, 3-chloro-N-[2-(dimethylamino)ethyl]-N-methyl-2-({4-[(1-methyl-1H-pyrazol-3-yl)amino]quinazolin-6-yl}oxy)isonicotinamide], the EC50 came out at 6090 nM.

In the case of `CCNCCCOc1cnc(Oc2ccc3ncnc(Nc4ccn(C)n4)c3c2)c(Cl)c1` [Example 20, 6-({3-chloro-5-[3-(ethylamino)propoxy]pyridin-2-yl}oxy)-N-(1-methyl-1H-pyrazol-3-yl)quinazoline-4-amine hydrochloride], the EC50 is 40 nM.

For the molecule `Cc1cc(OCCO)cnc1Oc1ccc2ncnc(Nc3cnn(C)n3)c2c1` [Example 84, 2-{[5-methyl-6-({4-[(2-methyl-2H-1,2,3-triazol-4-yl)amino]quinazolin-6-yl}oxy)pyridin-3-yl]oxy}ethanol], the EC50 was 40 nM.

Turning to `CN(C)CCOc1ncc(Oc2ccc3ncnc(Nc4ccn(C)n4)c3c2)cn1` [Example 7, 6-({2-[2-(dimethylamino)ethoxy]pyrimidin-5-yl}oxy)-N-(1-methyl-1H-pyrazol-3-yl)quinazoline-4-amine], the EC50 worked out at 6930 nM.

Consider `CN(C)CCOc1ccc(Oc2ccc3ncnc(Nc4ccn(C)n4)c3c2)cn1` [Example 3, 6-({6-[2-(dimethylamino)ethoxy]pyridin-3-yl}oxy)-N-(1-methyl-1H-pyrazol-3-yl)quinazoline-4-amine], for which the EC50 is 1740 nM.

As to `Cc1cnc(Nc2ncnc3ccc(Oc4ccc(OCCNC(C)C)cn4)cc23)cn1` [Example 37, 6-({5-[2-(isopropylamino)ethoxy]pyridin-2-yl}oxy)-N-(5-methylpyrazin-2-yl)quinazoline-4-amine], the EC50 came to 380 nM.

For `Cn1ccc(Nc2ncnc3ccc(Oc4ncc(OC5CNC5)cc4Cl)cc23)n1` [Example 23, 6-{[5-(azetidin-3-yloxy)-3-chloropyridin-2-yl]oxy}-N-(1-methyl-1H-pyrazol-3-yl)quinazoline-4-amine hydrochloride], the EC50 was 50 nM.

As for `CN(C)CCCN(C)S(=O)(=O)c1cnc(Oc2ccc3ncnc(Nc4ccn(C)n4)c3c2)c(Cl)c1` [Example 64, 5-chloro-N-[3-(dimethylamino)propyl]-N-methyl-6-({4-[(1-methyl-1H-pyrazol-3-yl)amino]quinazolin-6-yl}oxy)pyridine-3-sulfonamide], the EC50 turned out to be 1140 nM.

As for `CN(C)CCOc1cnc(Oc2ccc3ncnc(Nc4cnccn4)c3c2)c(Cl)c1` [Example 44, 6-({3-chloro-5-[2-(dimethylamino)ethoxy]pyridin-2-yl}oxy)-N-pyrazin-2-ylquinazoline-4-amine], the EC50 stood at 260 nM.

Consider `CNCCOc1cnc(Oc2ccc3ncnc(Nc4ccn(C)n4)c3c2)c(C)c1` [Example 70, N-methyl-2-{[5-methyl-6-({4-[(1-methyl-1H-pyrazol-3-yl)amino]quinazolin-6-yl}oxy)pyridin-3-yl]oxy}ethanamine hydrochloride], for which the concentration giving a half-maximal response (EC50) turned out to be 26 nM.

With `Cc1cnc(Nc2ncnc3ccc(Oc4ncc(OCCN(C)C)cc4Cl)cc23)cn1` [Example 35, 6-({3-chloro-5-[2-(dimethylamino)ethoxy]pyridin-2-yl}oxy)-N-(5-methylpyrazin-2-yl)quinazoline-4-amine], the concentration for a half-maximal effect (EC50) was found to be 100 nM.

On to `Cc1cnc(Nc2ncnc3ccc(Oc4ncc(OCCNC(C)C)cc4F)cc23)cn1` [Example 40, 6-({3-fluoro-5-[2-(isopropylamino)ethoxy]pyridin-2-yl}oxy)-N-(5-methylpyrazin-2-yl)quinazoline-4-amine hydrochloride], for which the 50% effective concentration (EC50) came out at 350 nM.

As to `CC(C)NCCOc1ccc(Oc2ccc3ncnc(Nc4cnn(C)n4)c3c2)nc1` [Example 76, N-(2-{[6-({4-[(2-methyl-2H-1,2,3-triazol-4-yl)amino]quinazolin-6-yl}oxy)pyridin-3-yl]oxy}ethyl)propan-2-amine hydrochloride], the concentration giving a half-maximal response (EC50) was found to be 230 nM.

For the molecule `CN(C)CCOc1cnc(Oc2ccc3ncnc(Nc4ccn(C)n4)c3c2)c(Cl)c1` [Example 1, 6-({3-chloro-5-[2-(dimethylamino)ethoxy]pyridin-2-yl}oxy)-N-(1-methyl-1H-pyrazol-3-yl)quinazoline-4-amine], the EC50 came out at 80 nM.

For `CN(C)CCN(C)C(=O)c1cnc(Oc2ccc3ncnc(Nc4ccn(C)n4)c3c2)c(Cl)c1` [Example 65, 5-chloro-N-[2-(dimethylamino)ethyl]-N-methyl-6-({4-[(1-methyl-1H-pyrazol-3-yl)amino]quinazolin-6-yl}oxy)nicotinamide], the concentration for a half-maximal effect (EC50) is 410 nM.

Regarding `COc1ccc2nc(Nc3ncnc4ccc(Oc5ncc(OCCN(C)C)cc5Cl)cc34)sc2n1` [Example 46, 6-({3-chloro-5-[2-(dimethylamino)ethoxy]pyridin-2-yl}oxy)-N-(5-methoxy-[1,3]thiazolo[5,4-b]pyridin-2-yl)quinazoline-4-amine], the EC50 turned out to be 110 nM.
